Experimental data published in patent US8815882B2, “Pyrazole aminopyrimidine derivatives as LRRK2 modulators” (Genentech, Inc., priority 2010, dated 2014).
pKi: −log10 of the molar value.

Each molecule was assayed against T1, LRRK2 (Homo sapiens, UniProt Q5S007, G2019S) (assay: In Vitro LRRK2 Assay (LabChip 3000, fluorescently-labeled peptide substrate, ATP)). Conditions: Table 9; LRRK2 Ki (micromolar); read-out: LRRK2 Ki (KI).
T1 construct: purchased Invitrogen PV4882 (lot 567054A)
Assay type: biochemical
Experimental: This assay was used to determine a compound's potency in inhibiting activity of LRRK2 by determining, Kiapp, IC50, or percent inhibition values. In a polypropylene plate, LRRK2, fluorescently-labeled peptide substrate, ATP and test compound were incubated together. Using a LabChip 3000 (Caliper Life Sciences), after the reaction the substrate was separated by capillary electrophoresis into two populations: phosphorylated and unphosphorylated. The relative amounts of each were quantitated by fluorescence intensity. LRRK2 Ki was determined according to the equation: Y=V0*(1−(x+Ki*(1+S/Km)+Et)/(2*Et)−(((x+Ki*(1+S/Km)+Et)^2−(4*Et*x))^0.5)/(2*Et))). Ki values in Table 4 and elsewhere herein are shown in μM.
Assay conditions and materials used were as follows:
Compound Plate Preparation:
For serial dilutions, 34.6 μl DMSO was added to columns 3-24.
Total and Blank Preparation:
In Complete Reaction Buffer, substrate was diluted to 4 μM. Equal volumes of Complete Reaction Buffer and 4 μM substrate were combined to obtain the blank. Equal volumes of Complete Reaction Buffer and 4 μM substrate were combined and to the combined solution was added 2× final LRRK2 concentration.
To a 50 μl polypropylene plate, 5 μl/well buffer/substrate was added by hand to Blank wells. A Biomek FX was used to start the kinase reaction (“PLK SAR 23 ATP”). The following were added to the appropriate wells:
5 μl/well compound/ATP in Assay Plate;
5 μl/well kinase/substrate in Assay Plate;
The plate was incubated for 2 hours in the dark. Biomek FX was used to stop the kinase reaction (“PLK Stop”), and 10 μl/well Stop solution was added to the Assay Plate. Results were read on the LabChip 3000.
The LabChip 3000 was run using the job “LRRK2 IC50” with the following job settings: […]

T1 sequence (Q5S007 whole entry G2019S): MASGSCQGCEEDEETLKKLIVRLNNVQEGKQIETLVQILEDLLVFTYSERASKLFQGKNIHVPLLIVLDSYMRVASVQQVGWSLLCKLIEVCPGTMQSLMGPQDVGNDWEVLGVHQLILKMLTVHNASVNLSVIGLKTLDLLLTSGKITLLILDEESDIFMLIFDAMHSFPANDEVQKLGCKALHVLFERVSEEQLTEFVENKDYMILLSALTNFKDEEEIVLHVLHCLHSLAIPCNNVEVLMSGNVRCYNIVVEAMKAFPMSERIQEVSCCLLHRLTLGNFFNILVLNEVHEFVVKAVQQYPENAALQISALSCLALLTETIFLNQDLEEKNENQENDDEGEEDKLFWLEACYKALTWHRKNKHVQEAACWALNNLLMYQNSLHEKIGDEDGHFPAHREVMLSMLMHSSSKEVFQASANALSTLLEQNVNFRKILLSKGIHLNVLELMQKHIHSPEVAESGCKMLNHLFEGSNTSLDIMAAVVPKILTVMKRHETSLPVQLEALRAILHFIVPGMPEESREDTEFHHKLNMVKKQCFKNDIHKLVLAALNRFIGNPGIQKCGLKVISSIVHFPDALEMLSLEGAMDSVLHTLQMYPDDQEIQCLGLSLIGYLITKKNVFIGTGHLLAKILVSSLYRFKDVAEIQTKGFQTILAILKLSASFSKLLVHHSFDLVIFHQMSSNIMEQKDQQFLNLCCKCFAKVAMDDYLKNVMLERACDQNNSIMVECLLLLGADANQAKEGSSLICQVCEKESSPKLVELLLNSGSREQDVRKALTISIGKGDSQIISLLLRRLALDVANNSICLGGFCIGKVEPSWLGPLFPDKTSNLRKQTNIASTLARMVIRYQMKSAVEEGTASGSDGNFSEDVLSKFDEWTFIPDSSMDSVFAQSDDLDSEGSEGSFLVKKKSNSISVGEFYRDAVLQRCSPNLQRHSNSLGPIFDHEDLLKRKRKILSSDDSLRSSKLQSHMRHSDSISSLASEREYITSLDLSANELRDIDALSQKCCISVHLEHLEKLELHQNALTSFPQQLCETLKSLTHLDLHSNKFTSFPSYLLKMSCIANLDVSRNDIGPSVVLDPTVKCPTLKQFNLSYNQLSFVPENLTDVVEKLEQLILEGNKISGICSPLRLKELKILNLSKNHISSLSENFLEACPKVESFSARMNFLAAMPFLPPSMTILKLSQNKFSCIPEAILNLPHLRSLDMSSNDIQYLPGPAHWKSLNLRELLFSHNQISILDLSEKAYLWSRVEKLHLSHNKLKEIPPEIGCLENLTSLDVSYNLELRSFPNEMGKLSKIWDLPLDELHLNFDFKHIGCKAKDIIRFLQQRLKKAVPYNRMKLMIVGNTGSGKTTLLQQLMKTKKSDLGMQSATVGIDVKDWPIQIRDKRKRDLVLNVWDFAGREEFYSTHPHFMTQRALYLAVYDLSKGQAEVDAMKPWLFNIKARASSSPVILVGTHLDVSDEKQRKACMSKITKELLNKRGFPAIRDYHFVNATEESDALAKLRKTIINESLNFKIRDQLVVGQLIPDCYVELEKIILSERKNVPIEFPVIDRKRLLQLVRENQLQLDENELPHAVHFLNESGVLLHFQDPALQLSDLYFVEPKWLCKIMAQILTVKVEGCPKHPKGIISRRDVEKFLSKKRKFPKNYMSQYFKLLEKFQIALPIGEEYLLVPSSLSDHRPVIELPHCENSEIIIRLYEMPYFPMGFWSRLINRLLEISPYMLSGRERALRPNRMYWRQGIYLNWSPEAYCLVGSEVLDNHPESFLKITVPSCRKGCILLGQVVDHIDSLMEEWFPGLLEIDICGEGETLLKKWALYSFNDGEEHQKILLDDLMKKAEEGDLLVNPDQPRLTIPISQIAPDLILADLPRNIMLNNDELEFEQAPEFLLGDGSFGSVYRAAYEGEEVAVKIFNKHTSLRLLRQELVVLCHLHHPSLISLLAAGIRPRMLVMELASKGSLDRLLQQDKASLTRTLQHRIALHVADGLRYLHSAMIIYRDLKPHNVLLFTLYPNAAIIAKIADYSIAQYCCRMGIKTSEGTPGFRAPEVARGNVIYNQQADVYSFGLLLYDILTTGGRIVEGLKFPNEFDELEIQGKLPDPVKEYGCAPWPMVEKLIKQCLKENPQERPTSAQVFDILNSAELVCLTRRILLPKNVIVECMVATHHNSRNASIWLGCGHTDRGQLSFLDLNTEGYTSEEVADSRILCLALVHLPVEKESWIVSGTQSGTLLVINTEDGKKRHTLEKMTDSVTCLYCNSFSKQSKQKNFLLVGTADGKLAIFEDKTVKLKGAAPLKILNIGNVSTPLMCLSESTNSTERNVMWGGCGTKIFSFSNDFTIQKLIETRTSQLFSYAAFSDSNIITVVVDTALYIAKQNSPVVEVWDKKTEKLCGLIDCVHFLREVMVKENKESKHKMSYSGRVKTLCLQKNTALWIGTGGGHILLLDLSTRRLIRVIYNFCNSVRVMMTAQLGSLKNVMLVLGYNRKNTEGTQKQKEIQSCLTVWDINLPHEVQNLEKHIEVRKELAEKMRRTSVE

Row | pKi | SMILES
1 | 7.72 | CNc1nc(Nc2cnn(C(F)F)c2C)ncc1C#N [Example 384, 2-(1-Difluoromethyl-5-methyl-1H-pyrazol-4-ylamino)-4-methylamino-pyrimidine-5-carbonitrile]
2 | 8.01 | CCn1ncc(Nc2ncc(C#N)c(NC)n2)c1C [Example 351, 2-(1-ethyl-5-methyl-1H-pyrazol-4-ylamino)-4-(methylamino) pyrimidine-5-carbonitrile]
3 | 7.64 | CCNc1nc(Nc2cn(C3COC3)nc2C)ncc1C#N [Example 373, 4-(ethylamino)-2-(3-methyl-1-(oxetan-3-yl)-1H-pyrazol-4-ylamino) pyrimidine-5-carbonitrile]
4 | 7.56 | Cc1c(Nc2ncc(C#N)c(NCC(F)(F)F)n2)cnn1C [Example 376, 2-(1,5-dimethyl-1H-pyrazol-4-ylamino)-4-(2,2,2-trifluoroethylamino) pyrimidine-5-carbonitrile]

Same assay, conditions: Table 10; LRRK2 Ki (micromolar); read-out: LRRK2 Ki (KI)

Row | SMILES | pKi
5 | CNc1nc(Nc2cn(CC(=O)N(C)C)nc2C)ncc1C(F)(F)F [Example 396, N,N-dimethyl-2-(3-methyl-4-(4-(methylamino)-5-(trifluoromethyl)pyrimidin-2-ylamino)-1H-pyrazol-1-yl)acetamide] | 8.40
6 | CNc1nc(Nc2cn([C@@H](C)C(=O)N(C)C)nc2C)ncc1C(F)(F)F [Example 436, (S)-N,N-Dimethyl-2-[3-methyl-4-(4-methylamino-5-trifluoromethyl-pyrimidin-2-ylamino)-pyrazol-1-yl]-propionamide] | 7.52

The next lines start with the values.

Row | pKi | SMILES
7 | 8.15 | CNC(=O)C(C)(C)n1ncc(Nc2ncc(C(F)(F)F)c(NC3CC3)n2)c1C [Example 450, 2-[4-(4-Cyclopropylamino-5-trifluoromethyl-pyrimidin-2-ylamino)-5-methyl-pyrazol-1-yl]-N-methyl-isobutyramide]
8 | 8.43 | CNc1nc(Nc2cn(C3(C#N)CC3)nc2C)ncc1C(F)(F)F [Example 402, 1-(3-methyl-4-(4-(methylamino)-5-(trifluoromethyl)pyrimidin-2-ylamino)-1H-pyrazol-1-yl)cyclopropane-carbonitrile]

Same assay, conditions: read-out: LRRK2 Ki (KI), Table 7

Row | pKi | SMILES
9 | 7.18 | COc1nc(Nc2cnn(C3CCOCC3)c2C)ncc1Cl [Example 80, (5-Chloro-4-methoxy-pyrimidin-2-yl)-[5-methyl-1-(tetrahydro-pyran-4-yl)-1H-pyrazol-4-yl]-amine]
10 | 7.92 | Cc1c(Nc2ncc(C(F)(F)F)c(N3CCCC3)n2)cnn1C [Example 13, N-(1,5-dimethyl-1H-pyrazol-4-yl)-4-(pyrrolidin-1-yl)-5-(trifluoromethyl) pyrimidin-2-amine]
11 | 8.18 | COc1nc(Nc2cnn(C3CCOCC3)c2Cl)ncc1Cl [Example 85, (5-Chloro-4-methoxy-pyrimidin-2-yl)-[5-chloro-1-(tetrahydro-pyran-4-yl)-1H-pyrazol-4-yl]-amine]
12 | 8.54 | COc1nc(Nc2cn(C3CCOCC3)nc2C)ncc1Cl [Example 65, 5-chloro-4-methoxy-N-(3-methyl-1-(tetrahydro-2H-pyran-4-yl)-1H-pyrazol-4-yl)pyrimidin-2-amine]

Same assay, conditions: read-out: LRRK2 Ki (KI), Table 8

Row | SMILES | pKi
13 | CNc1nc(Nc2cn(-c3ccc(C(=O)N(C)C)cc3)nc2C)ncc1C(F)(F)F [Example 164, N,N-dimethyl-4-(3-methyl-4-(4-(methylamino)-5-(trifluoromethyl)pyrimidin-2-ylamino)-1H-pyrazol-1-yl)benzamide] | 8.24
14 | CCNc1nc(Nc2cn(CC(C)(C)O)nc2C(C)(C)C)ncc1C(F)(F)F [Example 201, 1-(3-tert-butyl-4-(4-(ethylamino)-5-(trifluoromethyl)pyrimidin-2-ylamino)-1H-pyrazol-1-yl)-2-methylpropan-2-ol] | 6.38
15 | CNc1nc(Nc2cn(-c3ccccn3)nc2C)ncc1C(F)(F)F [Example 117, N4-methyl-N2-(3-methyl-1-(pyridin-2-yl)-1H-pyrazol-4-yl)-5-(trifluoromethyl) pyrimidine-2,4-diamine] | 8.17
16 | CNc1nc(Nc2cn(C(C)C)nc2C)ncc1Br [Example 121, 5-bromo-N2-(1-isopropyl-3-methyl-1H-pyrazol-4-yl)-N4-methylpyrimidine-2,4-diamine] | 8.51
17 | CCNc1nc(Nc2cn(S(=O)(=O)C(C)C)nc2C)ncc1C(F)(F)F [Example 216, N4-ethyl-N2-(1-(isopropylsulfonyl)-3-methyl-1H-pyrazol-4-yl)-5-(trifluoromethyl) pyrimidine-2,4-diamine] | 8.41
18 | CNc1nc(Nc2cn(Cc3ccncn3)nc2C)ncc1C(F)(F)F [Example 329, N4-Methyl-N2-(3-methyl-1-pyrimidin-4-ylmethyl-1H-pyrazol-4-yl)-5-trifluoromethyl-pyrimidine-2,4-diamine] | 8.28
19 | CCCn1cc(Nc2ncc(Br)c(NC)n2)c(C)n1 [Example 113, 5-bromo-N4-methyl-N2-(3-methyl-1-propyl-1H-pyrazol-4-yl)pyrimidine-2,4-diamine] | 7.92

The next lines start with the values.

Row | pKi | SMILES
20 | 8.48 | CCS(=O)(=O)n1cc(Nc2ncc(C(F)(F)F)c(NC)n2)c(C)n1 [Example 249, N^2-(1-(ethylsulfonyl)-3-methyl-1H-pyrazol-4-yl)-N4-methyl-5-(trifluoromethyl) pyrimidine-2,4-diamine]
21 | 8.80 | CCNc1nc(Nc2cn(C3COC3)nc2C)ncc1C(F)(F)F [Example 97, N4-ethyl-N2-(3-methyl-1-(oxetan-3-yl)-1H-pyrazol-4-yl)-5-(trifluoromethyl) pyrimidine-2,4-diamine]
22 | 8.85 | CNc1nc(Nc2cnn(Cc3ncccn3)c2C)ncc1C(F)(F)F [Example 315, N4-Methyl-N2-(5-methyl-1-pyrimidin-2-ylmethyl-1H-pyrazol-4-yl)-5-trifluoromethyl-pyrimidine-2,4-diamine]
23 | 7.72 | CNc1nc(Nc2cn(C3CCC(OC)C3)nc2C)ncc1C(F)(F)F (stereo not drawn) [Example 193, N2-(1-(3-methoxycyclo-pentyl)-3-methyl-1H-pyrazol-4-yl)-N4-methyl-5-(trifluoromethyl) pyrimidine-2,4-diamine]
24 | 9.52 | CCNc1nc(Nc2cnn(-c3ccc(C#N)cc3)c2C)ncc1C(F)(F)F [Example 162, 4-(4-(4-(ethylamino)-5-(trifluoromethyl)pyrimidin-2-ylamino)-5-methyl-1H-pyrazol-1-yl)benzonitrile]
25 | 9.52 | CNc1nc(Nc2cnn(-c3ccc(C(=O)N(C)C)cc3)c2C)ncc1C(F)(F)F [Example 156, N,N-dimethyl-4-(5-methyl-4-(4-(methylamino)-5-(trifluoromethyl)pyrimidin-2-ylamino)-1H-pyrazol-1-yl)benzamide]
26 | 7.73 | CNc1nc(Nc2cnn([C@H](C)COC)c2C)ncc1C(F)(F)F [Example 274, N2-[1-((R)-2-Methoxy-1-methyl-ethyl)-5-methyl-1H-pyrazol-4-yl]-N4-methyl-5-trifluoromethyl-pyrimidine-2,4-diamine]
27 | 8.25 | CCCn1ncc(Nc2ncc(C(F)(F)F)c(NC)n2)c1C [Example 119, N4-methyl-N2-(5-methyl-1-propyl-1H-pyrazol-4-yl)-5-(trifluoromethyl) pyrimidine-2,4-diamine]
28 | 8.74 | CNc1nc(Nc2cnn(C3CCN(C)CC3F)c2Cl)ncc1C(F)(F)F (stereo not drawn) [Example 241, N2-(5-chloro-1-(3-fluoro-1-methylpiperidin-4-yl)-1H-pyrazol-4-yl)-N4-methyl-5-(trifluoromethyl) pyrimidine-2,4-diamine]
29 | 7.21 | CNc1nc(Nc2cn([C@@H]3CCN(C)C3)nc2C)ncc1C(F)(F)F [Example 233, (R)-N4-methyl-N2-(3-methyl-1-(1-methylpyrrolidin-3-yl)-1H-pyrazol-4-yl)-5-(trifluoromethyl) pyrimidine-2,4-diamine]
30 | 8.11 | CCNc1nc(Nc2cn(C3CCN(C(=O)C(C)C)CC3)nc2C)ncc1C(F)(F)F [Example 268, 1-{4-[4-(4-Ethylamino-5-trifluoromethyl-pyrimidin-2-ylamino)-3-methyl-pyrazol-1-yl]-piperidin-1-yl}-2-methyl-propan-1-one]
31 | 9.10 | CCNc1nc(Nc2cnn(C3CCN(C(=O)C(C)C)CC3)c2C)ncc1C(F)(F)F [Example 267, 1-{4-[4-(4-Ethylamino-5-trifluoromethyl-pyrimidin-2-ylamino)-5-methyl-pyrazol-1-yl]-piperidin-1-yl}-2-methyl-propan-1-one]
32 | 8.92 | CNc1nc(Nc2cnn(C3CN(C(C)C)C3)c2C)ncc1C(F)(F)F [Example 278, N2-[1-(1-Isopropyl-azetidin-3-yl)-5-methyl-1H-pyrazol-4-yl]-N4-methyl-5-trifluoromethyl-pyrimidine-2,4-diamine]
33 | 8.48 | CNc1nc(Nc2cn(C3CCCC3O)nc2C)ncc1C(F)(F)F (stereo not drawn) [Example 335, 2-[3-Methyl-4-(4-methylamino-5-trifluoromethyl-pyrimidin-2-ylamino)-pyrazol-1-yl]-cyclopentanol]
